Assay results reported in patent US7453000B2, “Substituted oxazolobenzoisothiazole dioxide derivatives method for production and use thereof” (Sanofi-Aventis Deutschland GmbH, priority 2004, dated 2008).

molecular target: T1, human PTP1B (Homo sapiens, UniProt P18031); test: Enzymatic test system for detecting inhibition of a phosphatase (recombinant hPTP1B; phosphopeptide dephosphorylation / p-nitrophenyl phosphate cleavage); format: biochemical; settings: inhibition of recombinant hPTP1B (1-299 aa, expressed in Sf9 cells); Table 2 does not say which substrate procedure (A phosphopeptide or B pNPP)
T1 construct: without the carboxy-terminal hydrophobic region (corresponding to 1-299 aa); made in house; host or cells: Sf9 insect cells (Spodoptera frugiperda), baculovirus (Bac-to-Bac, pFASTBAC)
T1 sequence (P18031 1-299): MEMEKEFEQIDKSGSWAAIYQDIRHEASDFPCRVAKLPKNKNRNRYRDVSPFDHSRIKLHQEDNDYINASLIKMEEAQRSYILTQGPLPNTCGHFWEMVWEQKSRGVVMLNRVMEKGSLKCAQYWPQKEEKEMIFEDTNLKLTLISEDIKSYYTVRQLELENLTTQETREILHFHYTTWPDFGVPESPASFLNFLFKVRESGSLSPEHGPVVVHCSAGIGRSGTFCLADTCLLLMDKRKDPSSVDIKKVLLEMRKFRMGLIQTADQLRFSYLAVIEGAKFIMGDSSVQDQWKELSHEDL
Method: The activity of the compounds was tested as follows:
Enzymatic test systems for detecting inhibition of a phosphatase
The compounds of the formula I were tested for their phosphatase-inhibiting effect in an in vitro assay. The enzyme preparation and the performance of the assay was carried out as follows.
Obtaining the Enzyme Preparation:
• Sf9 cells (=Spodoptera frugiperda cell type; obtainable from invitrogen) are cultured in Grace's supplemented medium (Gibco-BRL) with 10% heat-inactivated fetal calf serum (Gibco-BRL) in spinner flasks at 28° C. in accordance with the protocol of Summers and Smith (A Manual for Methods for Baculoviruns Vectors and Insect Culture Procedures [Bulletin No. 15555]. Texas A & M University, Texas Agricultural Experiment Station, College Station, Tex., 1987). • Construction of recombinant Baculovirus transfer vectors: cDNA coding for the regulatory and catalytic domains of human PTP1B, but without the carboxy-terminal hydrophobic region (corresponding to 1-299 aa) was obtained by polymerase chain reaction via primers with attached cloning sites and suitable cDNA templates (obtainable for example from invitrogen) and then cloned into baculovirus expression vectors (Amersham Pharmacia Biotech.). The recombinant baculoviruses were prepared with the aid of the Bac-to-Bac baculovirus expression system (obtainable from Gibco-BRL). The gene was cloned into the pFASTBAC donor plasmid (obtainable from Life Technologies). The resulting plasmid was transformed into competent DH10BAC Escherichia coli cells (obtainable from Life Technologies). After transposition and antibiotic selection, the recombinant plasmid DNA was isolated from selected E. coli colonies and then used for the transfection of Sf9 insect cells. The virus particle in the supernatant medium was amplified three times up to a viral stock volume of 500 ml. B) Production of Recombinant Protein: • Baculovirus infection of a 500 ml spinner culture of Sf9 cells was essentially carried out as described by Summers and Smith (see above). Sf9 cells at a density of 1-3×10^6 cells/ml were pelleted by centrifugation at 300 g for 5 min, the supernatant was removed, and the cells were resuspended in a density of 1×10^7 cells/ml in a suitable recombinant viral stock (MOI 10). After careful shaking at room temperature for 1.5 h, fresh medium was added in order to achieve a cell density of 1×10^6 cells/ml. The cells were then cultured in suspension at 28° C. for suitable periods after postinfection. C) Cellular Fractionation and Complete Cell Extracts of Infected Sf9 Cells: • After the postinfection, aliquots were subjected to an analysis of protein expression by SDS-PAGE and Western blot analysis. The cellular fractionation was carried out as described (Cromlish, W. and Kennedy, B. Biochem. Pharmacol. 52: 1777-1785, 1996). Complete cell extracts were obtained from 1 ml aliquots of the infected Sf9 cells after certain times postinfection. The pelleted cells (300×g, 5 min) were washed once in phosphate-buffered saline (4° C.), resuspended in 50 μl of water and disrupted by repeated freezing/thawing. Protein concentrations were determined with the aid of the Bradford method and bovine serum albumin as standard. Assay Procedure: A) Dephosphorylation of a Phosphopeptide: • This assay is based on the release of phosphate from a consensus substrate peptide which is detected in the nanomolar concentration range by the malachite green/ammonium molybdate method (Lanzefta, P. A., Alvarez, L. J., Reinach, P. S., Candia, O. A. Anal Biochem. 100: 95-97, 1979) adapted for the microtiter plate format. The dodecatrisphosphopeptide TRDIYETDYYRK (Biotrend, Cologne) corresponds to amino acids 1142-1153 of the catalytic domain of the insulin receptor and is (auto)phosphorylated on tyrosine residues 1146, 1150 and 1151. […]

| SMILES | IC50 [µM] |
| --- | --- |
| N#Cc1cccc(-c2cnc(Nc3ccc4c(c3)CS(=O)(=O)N4)o2)c1 [Example 1] | 7.3 |
| O=S1(=O)Cc2cc(Nc3ncc(-c4cccc(Br)c4)o3)ccc2N1 [Example 2] | 12.6 |
| O=S1(=O)Cc2cc(Nc3ncc(-c4ccc(C(F)(F)F)cc4)o3)ccc2N1 [Example 3] | 15.7 |
| CC(C)(C)c1cc(-c2cnc(Nc3ccc4c(c3)CS(=O)(=O)N4)o2)cc(C(C)(C)C)c1O [Example 4] | 6.12 |
| O=S1(=O)Cc2cc(Nc3ncc(-c4ccc(-c5ccc(Cl)cc5)cc4)o3)ccc2N1 [Example 5] | 2.16 |
| O=S1(=O)Cc2cc(Nc3ncc(-c4ccc(Br)s4)o3)ccc2N1 [Example 6] | 9.44 |
| O=C(O)c1cc(-c2cnc(Nc3ccc4c(c3)CS(=O)(=O)N4)o2)ccc1O [Example 7] | 162 |
| O=C(O)COc1ccc(-c2cnc(Nc3ccc4c(c3)CS(=O)(=O)N4)o2)cc1 [Example 8] | 290 |
